{
  "source": "patent US20210353673A1",
  "about": "“CD11B + PIEZO-1 + MACROPHAGES AND USES THEREOF” (ALBERT-LUDWIGS-UNIVERSITÄT FREIBURG, priority 2018, published 2021)",
  "origin": "cited, not measured here",
  "system": "endothelial cells",
  "settings": "after 1 week, normal angiogenesis induced by VEGF",
  "data": [
    {"substance": "vascular endothelial growth factor [VEGF]", "values": [
      {"measurement": "ECs in Go phase", "value": 93, "unit": "%"}
    ]}
  ]
}
